# Results from patent publication US9834514B2, “Antibiotic sensitivity-restoring and photosensitive agents” (New Mexico Tech Research Foundation, priority 2015, dated 2017).
# Where two headings read alike, the source gives them in different places.
# Assays:
# [1] = test system: MRSA; test: Resensitization to antibiotics (log reduction, TABLE 29); assay type: cell-based, S. aureus
# [2] = test system: MRSA; test: as above; assay type: cell-based, S. aureus; remark: listed apart in the source
# Protocol: In a 96-well microtiter plate, two-fold dilutions were made of each drug (starting with 100 μM) in 100 μL of a cell suspension in TSB. The resulting samples were incubated overnight at 37° C. on a rotary shaking incubator at 100 rpm. The samples were then visually inspected for turbidity. A 20% well volume of MTT reagent (5 mg/mL) was subsequently added, and the samples were incubated for about 20 minutes.
# [3] = MIC against MRSA isolates; assay type: cell-based, S. aureus; conditions: Staphylococcus aureus
# Protocol: The MICs of S. aureus ATCC 33591, BAA-44, BAA-1707, BAA-1717, BAA-1720, BAA-1747, BAA-1754, BAA-1761, BAA-1763, BAA-1764, and BAA-1766 were measured using a cell concentration of about 5×10^5 colony forming units (CFU)/mL. In a 96-well microtiter plate, two-fold dilutions were made of each drug (starting with 100 μM) in 100 μL of a cell suspension in trypticase soy broth (TSB). The samples were incubated overnight at 37° C. on a rotary shaking incubator set at 100 revolutions per minute (rpm) and were visually inspected for turbidity. A 20% well-volume of 3-(4,5-dimethylthiazol-2-yl)-2,5-diphenyltetrazolium bromide (MTT reagent, 5 mg/mL) was added, and the samples were incubated for about 20 minutes. The MICs were determined as the lowest concentration at which full visual inhibition was observed by the unaided eye.
# [4] = test system: A. baumannii (ATCC 15151); test: MIC against A. baumannii; assay type: cell-based; conditions: Acinetobacter baumannii, ATCC15151
# Protocol: TABLE 28 details the individual MIC values of compounds 1, 7, 8, 9, 10, 11, PMB, PME, and light against A. baumannii.
# (§1) The MICs of PME and compounds 8-11 were determined against A. baumannii (ATCC 15151). […] After incubating the cells with PME, a compound (5 μM) was added, and the samples were further incubated at 37° C. At specific time points, samples were taken and diluted ten-fold in media. Ten microliters of each dilution was then drip-streaked onto an agar plate and incubated overnight at 37° C. Colony counts were then performed, and the CFU/mL were calculated.
# [5] = test system: P. aeruginosa; test: Resensitization to antibiotics (log reduction, TABLE 29); assay type: cell-based; conditions: compound 20 μM
# [6] = test system: MRSA (ATCC BAA-44); test: Synergy with oxacillin and norfloxacin and other antibiotics (colony counts); assay type: cell-based, S. aureus; conditions: for Synergy with Norfloxacin / Synergy with Oxacillin: TABLE 6; for log reduction in the number of surviving cells (CFU/mL), co-treatment with norfloxacin / log reduction in the number of surviving cells (CFU/mL), co-treatment with oxacillin: compared to compound alone, FIGS. 34, 39, 41; for Orders of Magnitude with Norfloxacin / Orders of Magnitude with Oxacillin: increase in ability to kill MRSA versus drug or compound alone
# Protocol: The synergy of compounds 1 and 7-11 with oxacillin and norfloxacin was tested against MRSA (ATCC BAA-44). An overnight culture of MRSA was first diluted to about 5×10^5 CFU/mL in TSB. Then, 1 mL of the diluted broth suspension was added to a borosilicate glass culture tube. An appropriate volume of a compound or an antibiotic drug stock was added to the broth suspension and mixed using a vortex mixer. Then an appropriate volume of an antibiotic was added to test synergy with compounds 7-11. The samples were subsequently mixed using a vortex mixer, and the samples were incubated for 18 hours at 37° C. on a rotary shaking incubator. After 18 hours, the test cultures were diluted ten-fold, 10 μL of each dilution was drip-streaked onto a TSA plate, and the samples were incubated for 18 hours at 37° C. Colony counts were then performed and the CFU/mL values were calculated.
# TABLE 21 details the MIC values identified in the MRSA assay of compounds 1, 7, 8, 9, 10, 11, various antibiotics, and light.
# [7] = test system: WI38 cells; test: Toxicity (IC50) on WI38 cells; assay type: cell-based; conditions: Homo sapiens, WI-38; normal lung fibroblast WI38 cells
# Protocol: The toxicities of the compounds of the invention were determined for human cancerous cervical epithelium HeLa and normal lung fibroblast WI38 cells. The toxicities of EPIs INF-55 and INF-55Cl were quantified as controls. […] TABLE 2 compares the toxicity of compounds 7-11 on HeLa cells and normal WI38 cells.
# [8] = test system: A. baumannii (ATCC 15151); test: Time course of colony counts with compounds and PME or PMB; assay type: cell-based; conditions: 0.2 μg/mL of PME, compound 5 μM; FIGS. 50, 52
# Protocol: as §1
# [9] = test system: S. aureus (ATCC 29213); test: microbe, parasite or virus in culture; assay type: cell-based; conditions: for MIC: Staphylococcus aureus, ATCC29213, read-out: Final MIC Apr. 16, 2015
# Protocol: Each mixture was incubated at 37° C. on a rotary shaking incubator for about 16 hours. MTT was then added to assess the viability of the cells (at 10% well volume). […] The cells were then streaked onto a TSA plate and incubated overnight at 37° C. These steps were repeated to reach a total of 30 exposures.
# [10] = MRSA (ATCC BAA-44), TABLE 21, read-out: MRSA MIC
# [11] = MRSA isolate ATCC BAA-44, read-out: MIC
# [12] = (1/40) MIC compound + (1/30) MIC Tetracycline
# [13] = (1/40) MIC compound + (1/31) MIC Dicloxicillin
# [14] = (1/40) MIC compound + (1/50) MIC Dicloxicillin
# [15] = (1/40) MIC compound + (1/50) MIC Norfloxacin
# [16] = (1/40) MIC compound + (1/50) MIC Tobramycin
# [17] = (1/40) MIC compound + (¼) MIC Oxacillin
# [18] = (1/40) MIC compound + (⅙) MIC Vancomycin
# [19] = MRSA isolate ATCC 33591, read-out: MIC
# [20] = MRSA isolate ATCC BAA-1707, read-out: MIC
# [21] = MRSA isolate ATCC BAA-1717, read-out: MIC
# [22] = MRSA isolate ATCC BAA-1720, read-out: MIC
# [23] = MRSA isolate ATCC BAA-1747, read-out: MIC
# [24] = MRSA isolate ATCC BAA-1754, read-out: MIC
# [25] = MRSA isolate ATCC BAA-1761, read-out: MIC
# [26] = MRSA isolate ATCC BAA-1763, read-out: MIC
# [27] = MRSA isolate ATCC BAA-1764, read-out: MIC
# [28] = MRSA isolate ATCC BAA-1766, read-out: MIC
# [29] = (⅛) MIC compound + (1/16) MIC Norfloxacin
# [30] = (⅛) MIC compound + (⅛) MIC Oxacillin
# [31] = (⅛) MIC compound + (1/7) MIC Norfloxacin
# [32] = (⅛) MIC compound + (¼) MIC Oxacillin
smiles,measurement,setting,value
Clc1ccc(/C=C/c2[nH]c3ccccc3c2/C=C/c2ccc(Cl)cc2)cc1 [Compound 1],Log Reduction,"[1]; compound 1 μM, MRSA ATCC BAA-44, Light (2 min)",8
same,Log Reduction,"[1]; compound 10 μM, Dicloxacillin (1 μg/mL)",8
same,Log Reduction,"[1]; compound 10 μM, Doxycycline (0.1 μg/mL)",4
same,Log Reduction,"[1]; compound 10 μM, Vancomycin (0.5 μg/mL)",9
same,Log Reduction,"[2]; compound 1 μM, MRSA ATCC BAA-1717, Light (2 min)",6
same,Log Reduction,"[2]; compound 10 μM, Norfloxacin (20 μg/mL)",9
same,Log Reduction,"[2]; compound 10 μM, Oxacillin (100 μg/mL)",7-8
same,Log Reduction,"[2]; compound 10 μM, Tetracycline (0.1 μg/mL)",5-6
same,Log Reduction,"[2]; compound 10 μM, Tobramycin (100 μg/mL)",9
same,MIC,[3]; [10],400 µM
same,MIC,[3]; [11],400 µM
same,MIC,[4],> 100 µM
same,Log Reduction,[5]; PME (0.1 μg/mL),2
same,Log Reduction,[5]; PME (0.1 μg/mL) + Light (2 min),8
same,% Kill,[6]; [12],99.99%
same,Surviving MRSA,[6]; [12],1.00 × 10^−5
same,% Kill,[6]; [13],99.99%
same,Surviving MRSA,[6]; [13],1.00 × 10^−4
same,% Kill,[6]; [14],99.99%
same,Surviving MRSA,[6]; [14],1.00 × 10^−8
same,% Kill,[6]; [15],99.99%
same,Surviving MRSA,[6]; [15],1.00 × 10^−9
same,% Kill,[6]; [16],99.99%
same,Surviving MRSA,[6]; [16],1.00 × 10^−9
same,% Kill,[6]; [17],99.99%
same,Surviving MRSA,[6]; [17],1.00 × 10^−7
same,% Kill,[6]; [18],99.99%
same,Surviving MRSA,[6]; [18],1.00 × 10^−9
same,% Kill,[6]; (1/40) MIC compound + Light,99.99%
same,Surviving MRSA,[6]; (1/40) MIC compound + Light,1.00 × 10^−8
same,Synergy with Norfloxacin,[6],5-log reduction
same,Synergy with Oxacillin,[6],5-log reduction
same,"log reduction in the number of surviving cells (CFU/mL), co-treatment with norfloxacin",[6],~5 log
same,"log reduction in the number of surviving cells (CFU/mL), co-treatment with oxacillin",[6],~5 log
same,Orders of Magnitude with Norfloxacin,[6],9
same,Orders of Magnitude with Oxacillin,[6],>7
Clc1ccc(Oc2c(-c3ccc(Cl)cc3)[nH]c3ccccc23)cc1 [Compound 10],Log Reduction,"[1]; compound 1 μM, Norfloxacin (15 μg/mL)",5-6
same,IC50,[7],54.8 µM
same,Log Reduction,"[2]; compound 1 μM, Oxacillin (100 μg/mL)",4-5
same,MIC,[3]; [10],16 µM
same,MIC,[3]; [19],12.5 µM
same,MIC,[3]; [11],8 µM
same,MIC,[3]; [20],12.5 µM
same,MIC,[3]; [21],6.3 µM
same,MIC,[3]; [22],6.3 µM
same,MIC,[3]; [23],12.5 to 25 µM
same,MIC,[3]; [24],50 µM
same,MIC,[3]; [25],> 100 µM
same,MIC,[3]; [26],50 to 100 µM
same,MIC,[3]; [27],> 100 µM
same,MIC,[3]; [28],25 to 50 µM
same,A. baumannii colony populations on treatment with compound and PME,[8],reduced to sterility
same,Resistance Evolved,[9],No
same,MIC,[9],16 to 32 µM
same,MIC,[4],> 100 µM
same,Log Reduction,[5]; PME (0.1 μg/mL),2
same,% Kill,[6]; [29],99.99%
same,Surviving MRSA,[6]; [29],1.00 × 10^−8
same,% Kill,[6]; [30],99.99%
same,Surviving MRSA,[6]; [30],1.00 × 10^−8
same,"MICs greater than cells treated with compound alone, with norfloxacin",[6]; FIGS. 35-38,eight-fold
same,"MICs greater than cells treated with compound alone, with oxacillin",[6]; FIGS. 35-38,eight-fold
same,Synergy with Norfloxacin,[6],5-log reduction
same,Synergy with Oxacillin,[6],4-log reduction
same,"log reduction in the number of surviving cells (CFU/mL), co-treatment with norfloxacin",[6],~5 log
same,"log reduction in the number of surviving cells (CFU/mL), co-treatment with oxacillin",[6],~4 log
same,Orders of Magnitude with Norfloxacin,[6],8
same,Orders of Magnitude with Oxacillin,[6],8
Clc1ccc(Oc2c(-c3ccc(Cl)cc3)[nH]c3ccc(Cl)cc23)cc1 [Compound 11],Log Reduction,"[1]; compound 0.5 μM, Norfloxacin (20 μg/mL)",8
same,Log Reduction,"[1]; compound 0.5 μM, Oxacillin (100 μg/mL)",5
same,IC50,[7],9.62 µM
same,MIC,[3]; [10],8 µM
same,MIC,[3]; [19],6.3 to 12.5 µM
same,MIC,[3]; [11],4 µM
same,MIC,[3]; [20],12.5 µM
same,MIC,[3]; [21],3.1 to 6.3 µM
same,MIC,[3]; [22],3.1 to 6.3 µM
same,MIC,[3]; [23],6.3 to 12.5 µM
same,MIC,[3]; [24],50 to 100 µM
same,MIC,[3]; [25],50 to 100 µM
same,MIC,[3]; [26],50 µM
same,MIC,[3]; [27],50 µM
same,MIC,[3]; [28],50 to 100 µM
same,A. baumannii colony populations on treatment with compound and PME,[8],reduced to sterility
same,Resistance Evolved,[9],Yes
same,MIC,[9],> 256 µM
same,MIC,[4],> 100 µM
same,Log Reduction,[5]; PME (0.1 μg/mL),2
same,% Kill,[6]; [31],99.99%
same,Surviving MRSA,[6]; [31],1.00 × 10^−5
same,% Kill,[6]; [32],99.99%
same,Surviving MRSA,[6]; [32],1.00 × 10^−5
same,Synergy with Norfloxacin,[6],8-log reduction
same,Synergy with Oxacillin,[6],5-log reduction
same,"log reduction in the number of surviving cells (CFU/mL), co-treatment with norfloxacin",[6],~8 log
same,"log reduction in the number of surviving cells (CFU/mL), co-treatment with oxacillin",[6],~5 log
same,killing of MRSA in conjunction with oxacillin,"[6]; compound 11 at 1 μM, FIG. 40",more effective at killing MRSA when used in conjunction with oxacillin
same,Orders of Magnitude with Norfloxacin,[6],5
same,Orders of Magnitude with Oxacillin,[6],5
